Measured values published in patent publication US8354403B2, “Pyrrolidine derived beta 3 adrenergic receptor agonists” (Merck Sharp & Dohme Corp., priority 2009, dated 2013).
Where a name gives a salt, the structure may show the parent alone. Read-outs that look alike come from different tables or passages of the source.

Molecular target: T1, human β3 adrenergic receptor (Homo sapiens, UniProt P13945)
T1 construct: expressed in transfected cells; host or cells: Chinese hamster ovary (CHO) cells, stably transfected
Assay: Beta-3 agonist in vitro functional assay: cAMP production (LANCE TR-FRET) in CHO cells stably transfected with the cloned β3 receptor
Type: cell-based
Summary of the method: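 CHO cells stably expressing the cloned receptor, in HEPES-buffered HBSS with BSA and 0.6 mM IBMX, 6,000 cells/well, exposed to compound for 30 min at RT. cAMP read by LANCE TR-FRET against a cAMP standard curve. Isoproterenol defines maximal stimulation.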

[1] = Table 5, cAMP, CHO cells, read-out: Human β3 agonist functional activity
[2] = Table 8, Beta-3 agonist in vitro functional assay, read-out: Human β3 agonist functional activity
[3] = Table 11, cAMP, CHO cells, read-out: Human β3 agonist functional activity
[4] = Table 10, Beta-3 agonist in vitro functional assay, read-out: Human β3 agonist functional activity
[5] = Table 12, human β3 functional activity given as ranges, read-out: Human β3 agonist functional activity
[6] = Table 4, cAMP, CHO cells, read-out: Human β3 agonist functional activity
[7] = Table 9, Beta-3 agonist in vitro functional assay, read-out: Human β3 agonist functional activity

T1 sequence (P13945 whole entry): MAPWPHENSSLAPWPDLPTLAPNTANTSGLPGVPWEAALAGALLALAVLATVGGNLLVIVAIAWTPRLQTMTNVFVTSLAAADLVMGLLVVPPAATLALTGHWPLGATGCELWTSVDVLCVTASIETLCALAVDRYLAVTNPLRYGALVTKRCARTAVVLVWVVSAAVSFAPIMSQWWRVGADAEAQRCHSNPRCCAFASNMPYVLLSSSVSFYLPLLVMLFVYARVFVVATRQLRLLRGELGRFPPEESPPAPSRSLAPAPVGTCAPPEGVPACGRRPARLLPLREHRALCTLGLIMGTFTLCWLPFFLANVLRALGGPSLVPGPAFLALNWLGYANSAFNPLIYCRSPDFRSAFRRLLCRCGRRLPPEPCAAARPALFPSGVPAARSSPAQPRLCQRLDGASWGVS

For `CC(C)n1nnnc1C1CCN(C(=O)c2ccc(C[C@@H]3CC[C@H]([C@H](O)c4ccccc4)N3)cc2)CC1` [Example 109], the EC50 [1] was 1 to 9.9 nM.
Compound `CC(C(=O)N1CCC(F)(F)C1)N1CCN(C(=O)c2ccc(C[C@@H]3CC[C@H]([C@H](O)c4ccccc4)N3)cc2)CC1` (stereo partly drawn) [Example 432, (R)-{(2R,5S)-5-[4-({4-{2-(3,3,-Difluoropyrrolidin-1-yl)-1-methyl-2-oxoethyl]piperazine-1-yl}carbonyl)benzyl}pyrrolidin-2-yl)(phenyl)methanol, TFA salt] has an EC50 (given as a range, cAMP, CHO cells, read-out: human β3 functional activity) of 10 to 99.9 nM.
For `O=C1OC2(CCN(C(=O)c3ccc(C[C@@H]4CC[C@H]([C@H](O)c5cccnc5)N4)cc3)CC2)c2ccccc21` [Example 284], the EC50 [2] was 1 to 9.9 nM.
`O=C(c1ccc(C[C@@H]2CC[C@H]([C@H](O)c3ccccc3)N2)cc1)N1CC2CC1CN2c1nccs1` (some centres unmarked) [Example 544] gave an EC50 [3] of 999 to 3000 nM.
In the case of `O=C(c1ccc(C[C@@H]2CC[C@H]([C@H](O)c3ccccc3)N2)cc1)N1CCC2(CC1)C(=O)NCN2c1ccccc1` [Example 260], the EC50 [2] is reported as less than 1 nM.
Compound `O=C1CC2(CCN(C(=O)c3ccc(C[C@@H]4CC[C@H]([C@H](O)c5ccccc5)N4)cc3)CC2)Oc2ccccc21` [Example 323] has an EC50 [2] of 10 to 99.9 nM.
Compound `CC(C(=O)N1CCCC(C(F)(F)F)C1)N1CCN(C(=O)c2ccc(C[C@@H]3CC[C@H]([C@H](O)c4ccccc4)N3)cc2)CC1` (some centres unmarked) [Example 487] has an EC50 [4] of 1 to 9.9 nM.
`Cc1cncnc1OC1CCN(C(=O)c2ccc(C[C@@H]3CC[C@H]([C@H](O)c4ccccc4)N3)cc2)CC1` [Example 153] showed an EC50 [1] of 100 to 999 nM.
Compound `C[C@H]1CN(C(=O)c2ccc(C[C@@H]3CC[C@H]([C@H](O)c4ccccc4)N3)cc2)CCN1Cc1ccccn1` [Example 528] has an EC50 [3] of 10 to 99.9 nM.
`O=C(c1ccc(CC2CCC(C(O)c3ccccc3)N2)cc1)N1CCN(C2CCN(C3CC3)C2=O)CC1` (single isomer, unassigned) [Example 607] gave an EC50 [5] of 100 to 999 nM.
`C[C@H]1CN(C(=O)c2ccc(C[C@@H]3CC[C@H]([C@H](O)c4ccccc4)N3)cc2)CCN1Cc1n[nH]c2ccccc12` [Example 532] was tested, and the EC50 [3] was 10 to 99.9 nM.
`O=C(c1ccc(C[C@@H]2CC[C@H]([C@H](O)c3ccccc3)N2)cc1)N1CCCC2(CCc3cc(F)ccc3O2)C1` (some centres unmarked) [Example 44] gave an EC50 [6] of 100 to 999 nM.
For `CC(C(=O)N1CCC(F)CC1)N1CCN(C(=O)c2ccc(C[C@@H]3CC[C@H]([C@H](O)c4ccccc4)N3)cc2)CC1` (some centres unmarked) [Example 491], the EC50 [4] was 10 to 99.9 nM.
`O=C(c1ccc(C[C@@H]2CC[C@H]([C@H](O)c3ccccc3)N2)cc1)N1CCC2(CC1)C(=O)NCC2c1ccccn1` (some centres unmarked) [Example 266] gave an EC50 [2] of 1 to 9.9 nM.
`CC(C)(c1ccccc1F)N1CCN(C(=O)c2ccc(C[C@@H]3CC[C@H]([C@H](O)c4ccccc4)N3)cc2)CC1` [Example 412] showed an EC50 [7] of 1 to 9.9 nM.
Work on `O=C(OCc1ccccc1)C1CCCN(C(=O)c2ccc(C[C@@H]3CC[C@H]([C@H](O)c4ccccc4)N3)cc2)C1` (some centres unmarked) [Example 32] yielded an EC50 [6] of 10 to 99.9 nM.
`O=C(c1ccc(C[C@@H]2CC[C@H]([C@H](O)c3ccccc3)N2)cc1)N1CCC2(CC1)c1ccccc1CS2(=O)=O` [Example 302] was tested, and the EC50 [2] was 10 to 99.9 nM.
Compound `O=C(c1ccc(C[C@@H]2CC[C@H]([C@H](O)c3cccnc3)N2)cc1)N1CCN(c2nccs2)CC1` [Example 379] has an EC50 [7] of 100 to 999 nM.
Work on `CC1(C)CC2(CCCN(C(=O)c3ccc(C[C@@H]4CC[C@H]([C@H](O)c5ccccc5)N4)cc3)C2)C(=O)O1` (some centres unmarked) [Example 41] yielded an EC50 [6] of 10 to 99.9 nM.
In the case of `O=C(c1ccc(C[C@@H]2CC[C@H]([C@H](O)c3ccccc3)N2)cc1)N1CCN(Cc2cnccn2)CC1` [Example 426], the EC50 [7] is reported as 10 to 99.9 nM.
`CC1(C)CC2(CCN(C(=O)c3ccc(C[C@@H]4CC[C@H]([C@H](O)c5ccccc5)N4)cc3)CC2)OC1=O` [Example 279] was tested, and the EC50 [2] was 10 to 99.9 nM.
With `O=C(c1ccc(C[C@@H]2CC[C@H]([C@H](O)c3ccccc3)N2)cc1)N1CCC2(CC1)C(=O)Nc1ccccc12` [Example 299] the EC50 [2] was 10 to 99.9 nM.
Work on `CC(c1ncco1)N1CCN(C(=O)c2ccc(CC3CCC(C(O)c4ccccc4)N3)cc2)CC1` (single isomer, unassigned) [Example 583] yielded an EC50 [5] of 10 to 99.9 nM.
`CC(C(=O)NC(C1CC1)C1CC1)N1CCN(C(=O)c2ccc(C[C@@H]3CC[C@H]([C@H](O)c4ccccc4)N3)cc2)CC1` (some centres unmarked) [Example 451] gave an EC50 [4] of 10 to 99.9 nM.
In the case of `O=C(c1ccc(C[C@@H]2CC[C@H]([C@H](O)c3ccccc3)N2)cc1)N1CCC2(CC1)C(=O)NCC2c1cccc(C(F)(F)F)c1` (some centres unmarked) [Example 264], the EC50 [2] is reported as less than 1 nM.
Work on `CC(C(=O)NCC(C)(C)O)N1CCN(C(=O)c2ccc(C[C@@H]3CC[C@H]([C@H](O)c4ccccc4)N3)cc2)CC1` (some centres unmarked) [Example 443] yielded an EC50 [4] of 10 to 99.9 nM.
`Cn1cc(C2CCN(C(=O)c3ccc(C[C@@H]4CC[C@H]([C@H](O)c5ccccc5)N4)cc3)CC2)nn1` [Example 97] gave an EC50 [1] of 100 to 999 nM.
In the case of `CC(C(=O)N1[C@H]2CC[C@@H]1CC2)N1CCN(C(=O)c2ccc(C[C@@H]3CC[C@H]([C@H](O)c4ccccc4)N3)cc2)CC1` (some centres unmarked) [Example 501], the EC50 [4] is reported as 100 to 999 nM.
Work on `CC(C(=O)NCc1cn2ccsc2n1)N1CCN(C(=O)c2ccc(C[C@@H]3CC[C@H]([C@H](O)c4ccccc4)N3)cc2)CC1` (some centres unmarked) [Example 467] yielded an EC50 [4] of 10 to 99.9 nM.
Compound `O=C(c1ccc(C[C@@H]2CC[C@H]([C@H](O)c3ccccc3)N2)cc1)N1CCC(Cn2cnccc2=O)CC1` [Example 149] has an EC50 [1] of 100 to 999 nM.
In the case of `CC(C(=O)N1Cc2cccnc2C1)N1CCN(C(=O)c2ccc(C[C@@H]3CC[C@H]([C@H](O)c4ccccc4)N3)cc2)CC1` (some centres unmarked) [Example 482], the EC50 [4] is reported as 10 to 99.9 nM.
With `Cc1nonc1N1CCN(C(=O)c2ccc(C[C@@H]3CC[C@H]([C@H](O)c4ccccc4)N3)cc2)CC1` [Example 380] the EC50 [7] was 10 to 99.9 nM.
Work on `O=C(c1ccc(C[C@@H]2CC[C@H]([C@H](O)c3ccccc3)N2)cc1)N1CCC(n2cnnn2)CC1` [Example 100] yielded an EC50 [1] of 10 to 99.9 nM.
Compound `CC(c1cscn1)N1CCN(C(=O)c2ccc(C[C@@H]3CC[C@H]([C@H](O)c4ccccc4)N3)cc2)CC1` (single isomer, unassigned) [Example 580] has an EC50 [5] of 10 to 99.9 nM.
`CC1(C)CC2(CCN(C(=O)c3ccc(C[C@@H]4CC[C@H]([C@H](O)c5ccc[n+]([O-])c5)N4)cc3)CC2)C(=O)O1` [Example 295] showed an EC50 [2] of 100 to 999 nM.
`O=C(c1ccc(C[C@@H]2CC[C@H]([C@H](O)c3ccccc3)N2)cc1)N1CCN(c2ccccc2O)CC1` [Example 359] was tested, and the EC50 [7] was 10 to 99.9 nM.
For `CC(C(=O)NCC1CC1)N1CCN(C(=O)c2ccc(C[C@@H]3CC[C@H]([C@H](O)c4ccccc4)N3)cc2)CC1` (some centres unmarked) [Example 447], the EC50 [4] was 10 to 99.9 nM.
In the case of `Cn1nnc(C2CCN(C(=O)c3ccc(C[C@@H]4CC[C@H]([C@H](O)c5ccccc5)N4)cc3)CC2)n1` [Example 106], the EC50 [1] is reported as 10 to 99.9 nM.
Compound `O=C(c1ccc(C[C@@H]2CC[C@H]([C@H](O)c3ccccc3)N2)cc1)N1CCN(Cc2nccs2)CC1` [Example 394] has an EC50 [7] of 10 to 99.9 nM.
`O=C(c1ccc(C[C@@H]2CC[C@H]([C@H](O)c3cccnc3)N2)cc1)N1CCC(N2C(=O)OCc3ccccc32)CC1` [Example 71] showed an EC50 [1] of 1 to 9.9 nM.
`O=C(c1ccc(C[C@@H]2CC[C@H]([C@H](O)c3ccccc3)N2)cc1)N1CCN(c2ncccn2)CC1` [Example 370] showed an EC50 [7] of 100 to 999 nM.
`O=C1CC2(CCN(C(=O)c3ccc(C[C@@H]4CC[C@H]([C@H](O)c5ccccc5)N4)cc3)CC2)Sc2ccccc21` [Example 326] was tested, and the EC50 [2] was 1 to 9.9 nM.
Work on `COc1ccc(C2(CNC(=O)C(C)(C)C)CCN(C(=O)c3ccc(C[C@@H]4CC[C@H]([C@H](O)c5cccnc5)N4)cc3)CC2)cc1` [Example 247] yielded an EC50 [2] of 100 to 999 nM.
`C[C@@H]1CN(C(=O)c2ccc(C[C@@H]3CC[C@H]([C@H](O)c4ccccc4)N3)cc2)CC[C@H]1n1cccn1` [Example 61] gave an EC50 [6] of 100 to 999 nM.
